According to patent US20210060033A1, “ORALLY ADMINISTERED COMBINATIONS OF BETA-LACTAM ANTIBIOTICS AND AVIBACTAM DERIVATIVES FOR TREATING BACTERIAL INFECTIONS” (priority 2019, published 2021):
Where two headings read alike, the source gives them in different places.

Experiments:
[1] = in vivo; cited from earlier work
[2] = cynomolgus monkey, in vivo; cited from earlier work
[3] = dog, in vivo; cited from earlier work
[4] = rat, in vivo, po; cited from earlier work
[5] = system: 314 Enterobacteriaceae; assay type: cell-based; conditions: for MIC90 with addition of avibactam: all isolates combined, avibactam at a fixed concentration of 4 μg/mL; for Estimated MIC90: Enterobacteria n = 314 (all isolates combined), avibactam or clavulanic acid fixed at 4 μg/mL in combinations
[6] = system: ESBL-positive isolates (n = 28); assay type: cell-based, Enterobacteriaceae; conditions: ESBL n = 28; avibactam or clavulanic acid fixed at 4 μg/mL in combinations
[7] = system: OXA-positive isolates (n = 22); assay type: cell-based, Enterobacteriaceae; conditions: for Estimated MIC90: OXA n = 22, avibactam or clavulanic acid fixed at 4 μg/mL in combinations; for MIC90 with addition of avibactam: OXA-positive isolates, avibactam 4 μg/mL
[8] = system: KPC-positive isolates (n = 23); assay type: cell-based, Enterobacteriaceae; conditions: for Estimated MIC90: KPC n = 23, avibactam or clavulanic acid fixed at 4 μg/mL in combinations; for MIC90 with addition of avibactam: KPC-positive isolates, avibactam 4 μg/mL
[9] = system: pAmpC (PlasAmpC) isolates (n = 20); assay type: cell-based, Enterobacteriaceae; conditions: pAmpC n = 20; avibactam or clavulanic acid fixed at 4 μg/mL in combinations
[10] = Single ascending oral dose phase 1 study of avibactam derivative (3) (Example 3), avibactam PK; assay type: in vivo, human; conditions: avibactam in plasma, fed
Protocol: The pharmacokinetics of avibactam provided as an orally administered avibactam derivative was determined on healthy human volunteers. A randomized, double-blind, placebo-controlled single ascending dose phase 1 study was undertaken with healthy male and female adults. […] Plasma and urine PK samples were collected prior to dosing and at frequent intervals after dosing. […] FIG. 12 also provides an overall estimate of F for the study population (n=24) presented as a conventional box-whisker graphic (median, interquartile range [25-75%] and Tukey whiskers).

[11] = Oral administration of avibactam derivative (3) to healthy human volunteers (Example 2), plasma avibactam; assay type: in vivo; conditions: for AUC0-INF: unit not given
Protocol: The pharmacokinetics of avibactam provided as an orally administered avibactam derivative was determined on healthy human volunteers.
[…] The plasma concentration of avibactam was measured. The free avibactam concentration was adjusted for from 5% to 8% protein binding (AUCfree=AUC0-inf×[…]).

[12] = avibactam, oral 300 mg of avibactam derivative (3), healthy

## CC(C)(COS(=O)(=O)ON1C(=O)N2C[C@H]1CC[C@H]2C(N)=O)C(=O)OCc1ccccc1 [avibactam derivative (4), benzyl 3-(((((1R,2S,5R)-2-carbamoyl-7-oxo-1,6-diazabicyclo[3.2.1]octan-6-yl)oxy)sulfonyl)oxy)-2,2-dimethylpropanoate]
[1]
  oral bioavailability (% F): greater than 10 % F

## COC(=O)C(C)(C)COS(=O)(=O)ON1C(=O)N2C[C@H]1CC[C@H]2C(N)=O [avibactam derivative (10), methyl 3-(((((1R,2S,5R)-2-carbamoyl-7-oxo-1,6-diazabicyclo[3.2.1]octan-6-yl)oxy)sulfonyl)oxy)-2,2-dimethylpropanoate]
[1]
  oral bioavailability (% F): greater than 10 % F

## CC(C)OC(=O)C(C)(C)COS(=O)(=O)ON1C(=O)N2C[C@H]1CC[C@H]2C(N)=O [avibactam derivative (11), isopropyl 3-(((((1R,2S,5R)-2-carbamoyl-7-oxo-1,6-diazabicyclo[3.2.1]octan-6-yl)oxy)sulfonyl)oxy)-2,2-dimethylpropanoate]
[1]
  oral bioavailability (% F): greater than 10 % F

## CCCCCCOC(=O)C(C)(C)COS(=O)(=O)ON1C(=O)N2C[C@H]1CC[C@H]2C(N)=O [avibactam derivative (12), hexyl 3-(((((1R,2S,5R)-2-carbamoyl-7-oxo-1,6-diazabicyclo[3.2.1]octan-6-yl)oxy)sulfonyl)oxy)-2,2-dimethylpropanoate]
[1]
  oral bioavailability (% F): greater than 10 % F

## CCCCCCCOC(=O)C(C)(C)COS(=O)(=O)ON1C(=O)N2C[C@H]1CC[C@H]2C(N)=O [avibactam derivative (13), heptyl 3-(((((1R,2S,5R)-2-carbamoyl-7-oxo-1,6-diazabicyclo[3.2.1]octan-6-yl)oxy)sulfonyl)oxy)-2,2-dimethylpropanoate]
[1]
  oral bioavailability (% F): greater than 10 % F
[2]
  avibactam oral bioavailability: greater than 50 % F
[3]
  avibactam oral bioavailability: greater than 50 % F

## CC(C)(C)OC(=O)C(C)(C)COS(=O)(=O)ON1C(=O)N2C[C@H]1CC[C@H]2C(N)=O [avibactam derivative (14), tert-butyl 3-(((((1R,2S,5R)-2-carbamoyl-7-oxo-1,6-diazabicyclo[3.2.1]octan-6-yl)oxy)sulfonyl)oxy)-2,2-dimethylpropanoate]
[1]
  oral bioavailability (% F): greater than 10 % F

## CCCCCCOC(=O)CCC(C)(C)COS(=O)(=O)ON1C(=O)N2C[C@H]1CC[C@H]2C(N)=O [avibactam derivative (36), hexyl 5-(((((1R,2S,5R)-2-carbamoyl-7-oxo-1,6-diazabicyclo[3.2.1]octan-6-yl)oxy)sulfonyl)oxy)-4,4-dimethylpentanoate]
[4]
  avibactam oral bioavailability (% F): greater than 10 % F

## CCCCCCCOC(=O)CCC(C)(C)COS(=O)(=O)ON1C(=O)N2C[C@H]1CC[C@H]2C(N)=O [avibactam derivative (37), heptyl 5-(((((1R,2S,5R)-2-carbamoyl-7-oxo-1,6-diazabicyclo[3.2.1]octan-6-yl)oxy)sulfonyl)oxy)-4,4-dimethylpentanoate]
[4]
  avibactam oral bioavailability (% F): greater than 10 % F

## CCCOC(=O)C(C)(C)COS(=O)(=O)ON1C(=O)N2C[C@H]1CC[C@H]2C(N)=O [avibactam derivative (57), propyl 3-(((((1R,2S,5R)-2-carbamoyl-7-oxo-1,6-diazabicyclo[3.2.1]octan-6-yl)oxy)sulfonyl)oxy)-2,2-dimethylpropanoate]
[4]
  avibactam oral bioavailability (% F): greater than 10 % F

## CCCCOC(=O)C(C)(C)COS(=O)(=O)ON1C(=O)N2C[C@H]1CC[C@H]2C(N)=O [avibactam derivative (58), butyl 3-(((((1R,2S,5R)-2-carbamoyl-7-oxo-1,6-diazabicyclo[3.2.1]octan-6-yl)oxy)sulfonyl)oxy)-2,2-dimethylpropanoate]
[4]
  avibactam oral bioavailability (% F): greater than 10 % F

## C[C@H]1[C@H](NC(=O)/C(=N\OC(C)(C)C(=O)O)c2csc(N)n2)C(=O)N1S(=O)(=O)O [aztreonam]
[5]
  MIC90 with addition of avibactam: 0.5 µg/mL

## C=CC1=C(C(=O)O)N2C(=O)[C@@H](NC(=O)/C(=N\OCC(=O)O)c3csc(N)n3)[C@H]2SC1 [cefixime]
[5]
  MIC90 with addition of avibactam: 1 µg/mL

## COCC1=C(C(=O)O)N2C(=O)[C@@H](NC(=O)/C(=N\OC)c3csc(N)n3)[C@H]2SC1 [cefpodoxime]
[6]
  Estimated MIC90: >32 µg/mL
[7]
  Estimated MIC90: >32 µg/mL
[8]
  Estimated MIC90: >32 µg/mL
[5]
  Estimated MIC90: >32 µg/mL
  MIC90 with addition of avibactam: 4 µg/mL
[9]
  Estimated MIC90: >32 µg/mL

## C[C@@H](O)[C@H]1C(=O)N2C(C(=O)O)=C(S[C@H]3CC[S@@+]([O-])C3)S[C@H]12 [sulopenem]
[6]
  Estimated MIC90: 0.12 µg/mL
[7]
  Estimated MIC90: >32 µg/mL
  MIC90 with addition of avibactam: 1 µg/mL
[8]
  Estimated MIC90: >32 µg/mL
  MIC90 with addition of avibactam: 1 µg/mL
[5]
  Estimated MIC90: 8 µg/mL
  MIC90 with addition of avibactam: 0.25 µg/mL
[9]
  Estimated MIC90: 0.5 µg/mL

## C[C@@H](O)[C@H]1C(=O)N2C(C(=O)O)=C(SC3CN(C4=NCCS4)C3)[C@H](C)[C@H]12 [tebipenem]
[6]
  Estimated MIC90: 0.12 µg/mL
[7]
  Estimated MIC90: >32 µg/mL
  MIC90 with addition of avibactam: 1 µg/mL
[8]
  Estimated MIC90: >32 µg/mL
  MIC90 with addition of avibactam: 1 µg/mL
[5]
  Estimated MIC90: 2 µg/mL
  MIC90 with addition of avibactam: 0.25 µg/mL
[9]
  Estimated MIC90: 0.25 µg/mL

## ethyl 3-(((((1R,2S,5R)-2-carbamoyl-7-oxo-1,6-diazabicyclo[3.2.1]octan-6-yl)oxy)sulfonyl)oxy)-2,2-dimethylpropanoate [avibactam derivative (3)]
[10]; single oral dose 300 mg
  Thalf: 1.51 (0.24) h
[10]; single oral dose 900 mg
  Thalf: 2.65 (0.46) h
[10]; single oral dose 1,350 mg
  Thalf: 2.33 (0.18) h
[11]; First Quartile, avibactam
  AUC0-INF: 5.9
[11]; Max, avibactam
  AUC0-INF: 10.9
[11]; Mean, avibactam
  AUC0-INF: 7.6
[11]; Min, avibactam
  AUC0-INF: 3.1
[11]; ThirdQuartile, avibactam
  AUC0-INF: 10.1
[11]; [12]
  AUCinf: about 7,600 ng×h/mL
  T1/2: about 1.5 hours
[11]; oral 600 mg of avibactam derivative (3), healthy
  T1/2: about 1.5 hours
[11]; orally administered dose not given
  dose of IV avibactam approximated by the oral dose: ~400 mg
[11]; orally administered dose of 300 mg
  dose of IV avibactam approximated by the oral dose: ~62.5 mg
[1]
  oral bioavailability (% F): greater than 10 % F
[2]
  avibactam oral bioavailability: greater than 50 % F
[3]
  avibactam oral bioavailability: greater than 50 % F
